Data taken from patent US20040106663A1, “Inhibitors of fungal invasion” (priority 2002, published 2004).
Several values for one entry are separate records, joined by “and”; a condition that tells them apart may be missing. Identical values can stand only once.

Key:
C. albicans [1] = experiment: Mouse model of fungal invasion, kidney lesion count (Compound II, IP and oral); format: in vivo; conditions: mice, 1 mg IP and oral repeated, 2×10^6 C. albicans, sacrifice about t=19 h, FIG. 1
Protocol: A mouse model of fungal invasion was used to examine the in vivo efficacy of Compound II in reducing invasion by C. albicans.
Briefly, 30 min prior to infection (t=−30 min) 1 mg of Compound II in buffer (10 treatment mice) or buffer only (10 control mice) was administered IP. At t=0 all mice were inoculated with 2×10^6 C. albicans. At t=6 h and t=14 h the IP treatment with Compound II or buffer was repeated. In addition, at t=2, t=4 h, t=10 h, and t=18 h 1 mg of Compound II or buffer only was administered orally. The mice were sacrificed at about t=19 h and the kidneys of the mice were examined for histologic signs of fungal invasion by counting the number of lesions.

[2] = test system: HepG2 human hepatoma cells; conditions: cited from earlier work
[3] = test system: stationary phase C. albicans (MC295) containing HWP1-lacZ; experiment: microbe, parasite or virus in culture; format: cell-based, Candida albicans; conditions: Candida albicans, read-out: C. albicans STAT IC50, stationary phase growth invasion assay
[4] = test system: HepG2 human hepatoma cells; conditions: 4 h
Protocol: Mammalian Cell Toxicity Assay
To investigate the toxicity of Compound I for mammalian cells, human hepatoma cell line HepG2 were exposed to Compound I and the (LD50) was determined. Briefly, HepG2 human hepatoma cells (American Type Culture Collection, Bethesda Md.) were plated at 1×10^5 cells/well in tissue culture treated 96 well plates and incubated at 5% CO2, 37° C. for 18 h prior to initiation of the assay. The compound stocks at 100 mM in DMSO were added to DM (defined media, media without serum with added insulin, selenium and transferrin) at an initial concentration of 1000 μM and serially diluted 1 to 3 in DM in a 96 well plate. For 20 μL of a test solution, 3.5 μL sample is added to 346.5 μL media for an initial concentration of 1000 μM. These dilutions are added to the cells at final sample concentrations between 0.5 and 1000 μM (<1% DMSO). Controls included: media only (negative control) and 0.1% Triton-X (positive control). Control drugs (tamoxifen and 2-thiouracil) were also used to verify each assay. The samples were incubated at 37° C. in humidified 5% CO2 atmosphere for 4 h.
The plate was read directly on the Tecan Spectrafluor Plus reader in the fluorescent mode at excitation 530 nm and emission 595 nm. The blank was subtracted from the total fluorescence to give the net fluorescence for that well. This total was compared to the control in the absence of the compound. An LD50 (concentration at 50% of lethal dose) is calculated as the concentration that leads to a response of 50% compared to the control cells. Thus, cytotoxicity is measured as percent of inhibition of cell viability as determined by the Alamar Blue assay.

C. albicans [5] = experiment: C. albicans overnight growth inhibition; format: cell-based, Candida albicans; design: concentration or dose not given beside the values
C. albicans (MC303) = experiment: C. albicans morphology assay (hyphae scored 1-5); conditions: invasion morphology phenotype, test compound at 10 μM, scale 1-5
Protocol: In this assay, described in greater detail below, the morphology of cells was assessed and scored on a 1-5 scale. A score of 1 was assigned to non-hyphal cells, “yeast-like” cells and budding cells, and a score of 5 was assigned to cells having many, relatively long (wild-type) hyphae.
A frozen stock culture was prepared by streaking C. albicans (MC303: ura3 Δ:: imm434/ura3Δ:: imm434 arg4::hisG/arg4::hisG ade2:: URA3:.pTEF1-lacZ/ADE2 hisl::hisG/HIS1 gal1::ARG4/GAL1) cells on a YPD agar plate and grown at 30° C. for 14-18 h. An isolated colony was added to 5 mL of YPD broth and grown on a roller drum (60 rpm) for 14-18 h at 30° C. Next, 600 μL of culture were aliquotted into 1 mL of 25% glycerol, and the tubes are stored at −80° C.
Frozen MC303 C. albicans cell stock was struck for isolation of a single colony using a sterile loop on a YPD agar plate and grown at 30° C. for 14-18 h. A single colony was inoculated into 5 mL of YPD in a test tube and grown on a roller drum (60 rpm) for 2 days at 30° C. to late stationary phase (OD600˜30). For the assay, this stock was diluted to 2.5×10^5 cells/mL to make a 10× stock. Next, 10 μL of this cell stock was added to 80 μL of Inducing Media and 10 μL of 10× compound stock or DMSO in a Coming, tissue-culture treated, flat-bottom, microtiter plate. The plate was incubated at 37° C. for 24 h. Next, 10 μL of formaldehyde (37%) was added to each well and the cells were fixed for 10 min. The liquid was gently decanted from the plate and each well was examined under a microscope. Each well was photographed and observed cells are scored on a scale of 1-5. […] A 1 indicates cells are non-hyphal with only “yeast-like” cells and budding cells.
Scores of 2, 3, and 4 indicate shorter length or reduced quantity of hyphae when compared with WT (2 being very near non-hyphal and 4 being close to WT).

[6] = test system: logarithmic phase C. albicans (MC295) containing HWP1-lacZ; experiment: microbe, parasite or virus in culture; format: cell-based; conditions: Candida albicans, read-out: C. albicans LOG IC50, logarithmic phase growth invasion assay (converted)
C. albicans [7] = experiment: Mouse model of fungal invasion, kidney histology score (Compound III in diet); format: in vivo; conditions: mice, powdered diet supplemented from t=−24 h to t=48 h, FIG. 2
Protocol: A mouse model of fungal invasion was used to examine the in vivo efficacy of orally administered Compound III in reducing invasion by C. albicans. Briefly, one day prior to infection (t=−24 h) mice were switched to a powdered diet supplemented Compound III (treatment mice) or no supplement (control mice). This diet was continued until the mice were sacrificed at t=48 h. The kidneys of the mice were then examined for histologic signs of fungal invasion. In the scoring system used, a score of 5 indicates the presence of many, large fungus-dominated lesions, a score of 3 indicates the presence of many inflammatory lesion and fungus-dominated lesion of mixed size, and a score of 1 indicates few, mainly inflammatory lesions.

| Compound | IC50 [3] | AFDD Mammalian Cytotoxicity LD50 [4] | C. albicans Overnight Growth Inhibition (C. albicans [5]) | C. albicans Phenotype Rating (C. albicans (MC303)) | IC50 [6] | also measured |
| --- | --- | --- | --- | --- | --- | --- |
| CCCCc1ccc(S(=O)(=O)Nc2cc(C)on2)s1 [Example 2, 5-Butyl-N-(5-methylisoxazol-3yl)thiophene-2-sulfonamide] |  |  |  |  |  | melting point: 96.5 to 100.7 °C |
| CCCNc1ccc(S(=O)(=O)Nc2cc(C)on2)cc1 [Compound II] |  |  |  |  |  | number of lesions on kidneys (C. albicans [1]): decreases the number of lesion relative to the control |
| O=c1cc[nH]c(=S)[nH]1 [Compound 2-thiouracil, 2-thiouracil] |  |  |  |  |  | expected LD50 of control drug [2]: > 1000 µM |
| Cc1cc(NS(=O)(=O)c2ccc(CC3CCCC3)cc2)no1 | 4.47 µM | 660.9 µM | 0.9% | 2 and 4 and 5 | 0.0793 µM |  |
| Cc1cc(NS(=O)(=O)c2ccc(-c3ccco3)cc2)no1 | > 20 µM | >1000 µM | 23.9% | 4 | 0.039 µM |  |
| Cc1cc(NS(=O)(=O)c2ccc(-c3cc(F)cc(F)c3)cc2)no1 [Example 1, N-(5-methyl-3-isoxazolyl)-4′-(3,5-difluorophenyl)benzensulfonamide] |  |  |  |  |  | melting point: 175 °C |
| Cc1cc(NS(=O)(=O)c2ccc(-c3ccc(F)cc3F)cc2)no1 [Compound III] |  |  |  |  |  | kidney histology score (severity of fungal invasion) (C. albicans [7]): decreases severity of fungal invasion relative to the control |
| Cc1cc(NS(=O)(=O)c2ccc(-c3ccc(F)cc3)cc2C)no1 | > 20 µM | 648.5 µM | 1.3% | 4 | 1.47 µM |  |
| CCCCCCc1ccc(S(=O)(=O)Nc2cc(C)on2)cc1 | 2.87 µM | 449.1 µM | 32.5% | 2 and 4 and 5 | 0.0099 µM |  |
